Data on 2 compounds can be found in patent US10792248B2, “Aqueous suspension preparation comprising nanoparticles of macrolide antibacterial agent” (ACTIVUS PHARMA CO., LTD., priority 2013, dated 2020).

In data set [1] the test system is Pseudomonas aeruginosa. In words: Minimum inhibitory concentration (MIC) test, broth microdilution method. In kind it is cell-based. The following applies: 35±1° C., 18 to 24 hours, replicates. How it is done: (§1) An MIC test was conducted by applying the minimum inhibitory concentration (MIC) measurement method by the broth microdilution method (the standard method of Japanese Society of Chemotherapy). The clarithromycin suspension prepared in Example 6 (1) (test substance 1) was used as a test substance. An unpulverized clarithromycin suspension (test substance 2) and a clarithromycin solution in DMSO (test substance 3) were used as controls for comparisons.
(§2) Each of the test substances was stirred for 15 seconds or more using a vortex mixer before dilution. The clarithromycin-containing samples (test substances 1 to 3) were diluted with Mueller Hinton II broth to be a concentration of 250 μg/mL, and then two-fold diluted serially to prepare mediums containing the each sample at a final drug concentration of 0.012 to 25 μg/mL, which were used for inoculation of Staphylococcus aureus subsp. aureus. Similarly, the samples were diluted with Mueller Hinton II broth to a concentration of 1000 μg/mL, and then two-fold diluted serially to prepare mediums containing the each sample at a final drug concentration of 0.049 to 100 μg/mL, which were used for inoculating Pseudomonas aeruginosa.
(§3) To a U-shaped well microplate, 0.1±0.02 mL per well of the each prepared test substance-containing medium was dispensed. Drug-free medium was dispensed into two wells as a control.
(§4) Staphylococcus aureus subsp. aureus or Pseudomonas aeruginosa was cultured overnight in Mueller Hinton II agar medium. The fresh cultured bacterium on the agar plate was suspended in equivalent to 0.5 McFarand (about 10^8 CFU/mL) with sterilized saline and further diluted tenfold (about 10^7 CFU/mL) with sterilized saline to prepare a bacterium liquid.
(§5) To each of the wells to which the test substance-containing medium or the test substance-free medium was dispensed, 0.005 mL of the bacterium liquid of Staphylococcus aureus subsp. aureus or Pseudomonas aeruginosa prepared in the above (2-2) was inoculated (final amount of bacterium liquid: about 10^4 CFU/well). The bacterium liquid was not inoculated to a part of the wells with the test substance-free medium to prepare negative control wells. After inoculation, the media were cultured at 35±1° C. for 18 to 24 hours.
(§6) After confirming growth in the control wells containing the test substance-free media, the minimum inhibitory concentration (MIC) was determined as the minimum drug concentration in which the growth of bacterium was not detected with the naked eye. […] When turbidity or a precipitation was not observed with the naked eye, or when only one precipitation with the diameter of 1 mm or less was observed, the growth was determined negative (−).

Data set [2] relates to Staphylococcus aureus subsp. aureus. Described as above. Type of data set: cell-based. Conditions: 35±1° C., 18 to 24 hours, replicates. How it is done:
as §1, §2, §3, §4, §5, §6

The conditions of data set [3]: cited from earlier work.
For data set [4] the following is noted: rabbit, in vivo; cited from earlier work.
In data set [5] the test system is nontuberculous mycobacteria. Conditions: cited from earlier work.
The conditions of data set [6]: formulation with effective average diameter of less than 2000 nm combined with a surface stabilizer (Patent Literature 4); cited from earlier work.
Data set [7] in a line: Stability test of nanoized clarithromycin suspension formulation, residual ratio by HPLC (Example 10). Conditions: 5° C., 25° C. and 40° C., 14 days. Type of data set: physicochemical. How it is done:
A quantity of 6 to 8 g of the nanoized clarithromycin suspension formulations (clarithromycin concentrations 0.3% and 1.0%) produced in Example 7 (1) were weighed in a 9 mL-screw vial, allowed to stand in thermo-hygrostats each set at 5° C., 25° C., and 40° C. to carry out the stability test over a period of 14 days. On days 7 and 14, the clarithromycin concentrations were determined by high performance liquid chromatography (HPLC), and the residual ratio was determined as compared to the clarithromycin concentration immediately after the formulation which was taken as 100% to evaluate the stability. The HPLC analysis conditions were as follows.
Apparatus: Waters alliance
Column: Inertsil ODS 4.6 mm×150 mm
Column temperature: 50° C.
Detection wavelength: 210 nm

In brackets after ≈: the same amount, converted by molar mass. Read-outs that look alike come from different tables or passages of the source.

As for `CC[C@H]1OC(=O)[C@H](C)[C@@H](O[C@H]2C[C@@](C)(OC)[C@@H](O)[C@H](C)O2)[C@H](C)[C@@H](O[C@@H]2O[C@H](C)C[C@H](N(C)C)[C@H]2O)[C@](C)(OC)C[C@@H](C)C(=O)[C@H](C)[C@@H](O)[C@]1(C)O` [Clarithromycin solution in DMSO, clarithromycin], in data set [1], the MIC (in general, the smallest concentration in the dilution series that meets the test's criterion for growth inhibition) was over 100 µg/mL and the Minimum inhibitory concentration was over 100 µg/mL. Also, in data set [2], the MIC came to 0.391 µg/mL (≈ 0.523 µM) and the Minimum inhibitory concentration came to 0.391 µg/mL (≈ 0.523 µM).

For `CC[C@H]1OC(=O)[C@H](C)[C@@H](O[C@H]2C[C@@](C)(OC)[C@@H](O)[C@H](C)O2)[C@H](C)[C@@H](O[C@@H]2O[C@H](C)C[C@H](N(C)C)[C@H]2O)[C@](C)(OC)C[C@@H](C)C(=O)[C@H](C)[C@@H](O)[C@]1(C)O` [clarithromycin], the solubility in acetone entry in data set [3] (acetone) is listed as “slightly soluble”. Also, the solubility in chloroform entry in data set [3] (chloroform) is reported as “slightly soluble”. In addition, in data set [3] (ethanol), the solubility in ethanol result is recorded as “very slightly soluble”. Further, the solubility in ether result in data set [3] (ether) is listed as “very slightly soluble”. In addition, the solubility entry in data set [3] (formulation with effective average diameter of less than 2000 nm combined with a surface stabilizer (Patent Literature 4)) is listed as “higher solubility”; in data set [3] (pulverized with L-ascorbic-acid 2-glycoside (Non Patent Literature 1)), “enhanced solubility”. Also, the solubility in methanol result in data set [3] (methanol) is “very slightly soluble”. Besides, the solubility in water result in data set [3] (water) was “practically insoluble”. In addition, the “retention in the cornea” value in data set [4] is reported as “retained in the cornea”. Also, in data set [5], the “effectiveness against nontuberculous mycobacteria relative to azithromycin” value is reported as “four to eight times as effective as azithromycin”. Also, in data set [6], the oral bioavailability result is given as “higher oral bioavailability”. The “stability (decomposition) in the suspension formulations” value in data set [7] is given as “not decomposed but stable”.
